From US20240368566A1, “PYK2-DERIVED PEPTIDES FOR INHIBITING INVADOPODIA-MEDIATED CANCER METASTASIS” (BAR-ILAN UNIVERSITY, priority 2023, published 2024) come the findings set out here.

Molecules are shown by their SMILES.

This test deals with MDA-MB-231 cells. Briefly: Invadopodium precursor formation assay. The class given is cell-based, human. Conditions: 4 h, 0.1, 1 or 5 μM peptide. The protocol:
The invadopodium precursor formation assay was performed as described in Genna et al., 2018 (supra). Briefly, gelatin was conjugated to Alexa 405 dye (Thermo Fisher Scientific). MatTek dishes were treated with 1 N HCl and coated with 50 μg/ml poly-L-lysine. A 0.2% gelatin solution was prepared in PBS, and a 1:20 mixture of Alexa 405-labeled gelatin/unlabeled gelatin was warmed to 37° C. before addition to the poly-L-lysine coated plates. Gelatin was cross-linked with 0.01% glutaraldehyde followed by quenching with 5 mg/ml sodium borohydride. 125,000 MDA-MB-231 cells were plated on Alexa 405-labeled gelatin plates in the presence of 0.1, 1, or 5 μM of Pyk2-PRR peptides or scrambled control for 4 h. At the end of incubation, cells were fixed in 3.7% paraformaldehyde, permeabilized with 0.1% Triton X-100, blocked with 1% FBS, 1% BSA in PBS, and labeled with anti-Tks5 and anti-cortactin. Images were acquired using an inverted fluorescent microscope (Leica AF6000; 63×, NA 1.4, oil objective, Leica LAS AF acquisition software) (Wetzlar, Germany) equipped with an ORCA-Flash 4.0 V2 digital CMOS camera (Hamamatsu Photonics, Shizuoka, Japan).

With `C[C@H](NC(=O)[C@@H](N)[C@@H](C)O)C(=O)N[C@@H](Cc1ccccc1)C(=O)N[C@@H](CCC(N)=O)C(=O)N[C@@H](CCC(=O)O)C(=O)N1CCC[C@H]1C(=O)N1CCC[C@H]1C(=O)N1CCC[C@H]1C(=O)N[C@@H](CCCCN)C(=O)N1CCC[C@H]1C(=O)N[C@@H](CO)C(=O)N[C@@H](CCCNC(=N)N)C(=O)N1CCC[C@H]1C(=O)N[C@@H](CCCCN)C(=O)N[C@@H](Cc1ccc(O)cc1)C(=O)N[C@@H](CCCNC(=N)N)C(=O)N1CCC[C@H]1C(=O)N1CCC[C@H]1C(=O)N1CCC[C@H]1C(=O)O` [Pyk2-PRR2, TAFQEPPPKPSRPKYRPPP], the “mature, matrix-degrading invadopodia” value (co-localization with degradation regions) is “significant decrease”. The immature invadopodium precursors entry (cortactin and Tks5 co-localization) is recorded as “significant increase”.
